Among the data in patent publication US5244915A, “Amico acid derivatives cyclized at the C-terminal” (Warner-Lambert Company, priority 1991, dated 1993) are Ki values, retold here.

The target of assay [1] is T1, CCK B (Mus musculus, UniProt P56481).
T1 construct: from tissue; host or cells: cerebral cortex of male CFLP mice (30-40 g), washed membranes
T1 sequence (P56481 1-453): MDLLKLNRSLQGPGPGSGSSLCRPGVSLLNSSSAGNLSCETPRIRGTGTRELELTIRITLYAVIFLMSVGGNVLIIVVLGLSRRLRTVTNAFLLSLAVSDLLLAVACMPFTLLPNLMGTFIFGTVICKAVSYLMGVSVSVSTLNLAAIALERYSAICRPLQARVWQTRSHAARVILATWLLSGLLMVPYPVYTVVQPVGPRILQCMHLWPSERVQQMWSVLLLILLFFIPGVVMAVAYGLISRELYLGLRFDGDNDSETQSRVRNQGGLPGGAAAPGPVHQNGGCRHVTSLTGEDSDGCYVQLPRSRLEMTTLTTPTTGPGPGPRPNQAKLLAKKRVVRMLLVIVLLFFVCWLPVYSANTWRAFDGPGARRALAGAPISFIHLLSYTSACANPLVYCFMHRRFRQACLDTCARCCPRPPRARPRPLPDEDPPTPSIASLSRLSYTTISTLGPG
The assay is described as follows: CCK receptor binding, displacement of tritiated-pentagastrin from cerebral cortical membranes (CCK B). On the set-up: species or system mouse (male CFLP). Particulars: mouse cerebral cortex membranes, 2 nM tritiated-pentagastrin. As for the experimental part: (§1) The biological activity of compounds of the present invention was evaluated employing an initial screening test which rapidly and accurately measured the binding of the tested compound to known CCK receptor sites. […] (See Hays et al, Neuropeptides 1:53-62, 1980; and Satuer et al, Science 208:1155-1156, 1980.
In this screening test, the cerebral cortices taken from male CFLP mice weighing between 30-40 g were dissected on ice, weighed, and homogenized in 10 volumes of 50 mM Tris-HCl buffer (pH 7.4 at 0°-4° C.). The resulting suspension was centrifuged, the supernate was discarded, and the pellet was washed by resuspension in Tris-HCl buffer followed by recentrifugation. The final pellet was resuspended in 20 volumes of […] buffer (pH 7.2 at 23° C.) containing 130 mM NaCl, […], […], […], 5 mg/mL bovine albumin, and bacitracin (0.25 mg/ml).
In saturation studies, cerebral cortical membranes were incubated at 23° C. for 120 minutes in a final volume of 500 μliter of Hepes incubation buffer (pH 7.2) together with 0.2-20 nM tritiated-pentagastrin (Amersham International, England).
In the displacement experiments, membranes were incubated with a single concentration (2 nM) of ligand, together with increasing concentrations (10^-11 to […]) of competitive test compound. In each case, the nonspecific binding was defined as that persisting in the presence of the unlabeled octapeptide CCK26-33 (10^-6 M).
Following incubation, radioactivity bound to membranes was separated from that free in solution by rapid filtration through Whatman GF/B filters and washed three times with 4 mL of ice cold Tris-HCl buffer. Filters from samples incubated with tritiated-pentagastrin were placed in polyethylene vials with 4 mL of scintillation cocktail, and the radioactivity was estimated by liquid scintillation spectrometry (efficiency 47-52%).
The specific binding to CCK receptor sites was defined as the total bound tritiated-pentagastrin minus the amount of tritiated-pentagastrin bound in the presence of 10^-6 octapeptide, CCK 26-33.
Saturation curves for specific tritiated-pentagastrin binding to mouse cortical membranes were analyzed by the methods of Scatchard (Ann. New York Acad. Sci. 51:660-672, 1949, and Hill (J. Phvsiol. 40:IV-VIII, 1910, to provide estimates for the maximum number of binding sites (Bmax) and the equilibrium dissociation constant (Ka).
In displacement experiments, inhibition curves were analyzed by either logit-log plots or the iterative curve fitting computer program ALLFIT (DeLean, Munson and Redbard, 1978) to provide estimates of the IC50 and nH (apparent Hill coefficient) values). (IC50 values were defined as the concentration of test compound required to produce 50% inhibition of specific binding.)
(§2) The inhibition constant (Ki) of the test compound was then calculated according to the Cheng-Prusoff equation: [formula] where [L] is the concentration of radiolabel and Ka is the equilibrium dissociation constant.

For assay [2], the target named is CCK A. The assay is described as follows: CCK receptor binding (CCK A). The note with it: assay not described. As for the experimental part: as §1, §2

Usually Ki stands for the dissociation constant of the complex between target and ligand, obtained from inhibition or displacement. A low value points to a stronger hold on the target. As to `CC1(C)[C@H]2CC[C@]1(C)[C@H](OC(=O)N[C@](C)(Cc1c[nH]c3ccccc13)C(=O)NC1CCc3ccccc3C1=O)C2` (single isomer, unassigned) [Compound 4, Carbamic acid, [1-(1H-indol-3-ylmethyl)-1 methyl-2-oxo-2-[(1,2,3,4-tetrahydro-1-oxo 2-naphthalenyl)amino]ethyl]-, 1,7,7-trimethyl-bicyclo[2.2.1]hept-2-yl ester], the Ki in assay [1] was 94 nM; in assay [2], 7620 nM.
With `CC(Cc1c[nH]c2ccccc12)(NC(=O)OC1C2CC3CC(C2)CC1C3)C(=O)NC1CCc2ccccc2C1` (racemic) [Compound 7, Carbamic acid, [1-1H-indol-3-ylmethyl)-1-methyl-2-oxo-2 [(1,2,3,4-tetrahydro-2-naphthalenyl)amino]ethyl]-, tricyclo[3.3.1.1^3,7]-dec-2-yl ester, (±)-], affinity in assay [1] was put at a Ki of 330 nM.
The same measure, in the same setting: as for `C[C@](Cc1c[nH]c2ccccc12)(NC(=O)OC1C2CC3CC(C2)CC1C3)C(=O)N1CCc2ccccc2C1` (stereo partly drawn) [Compound 8, Carbamic acid, [1-(1H-indol-3-ylmethyl)-1-methyl-2-oxo-2-(1,2,3,4-tetrahydro-2-isoquinolinyl)ethyl]-, tricyclo[3.3.1.1^3.7]-dec-2-yl ester, (R)-], the figure is 450 nM.
Consider `CC1(C)[C@H]2CC[C@]1(C)[C@H](OC(=O)N[C@](C)(Cc1c[nH]c3ccccc13)C(=O)N[C@@H]1Cc3ccccc3[C@H]1O)C2` [Compound 3, Carbamic acid, [2-[(2,3-dihydro 1-hydroxy-1H-inden-2-yl)amino]-1-(1H-indol-3-ylmethyl)-1-methyl-2-oxoethyl]-, 1,7,7-trimethylbicyclo-[2.2.1]hept-2-yl ester, [1S-[1α,2β[S*(1S*,2S*)],4α]]-], for which the Ki was found to be 30 nM in assay [1] and 3870 nM in assay [2].
As for `CC1(C)[C@H]2CC[C@]1(C)[C@H](OC(=O)N[C@](C)(Cc1c[nH]c3ccccc13)C(=O)N[C@H]1Cc3ccccc3[C@@H]1O)C2` [Compound 2, Carbamic acid, [2-[(2,3-dihydro-1-hydroxy-1H-inden-2-yl)amino]-1-1H-indol-3-ylmethyl)-2-methyl-2-oxoethyl]-, 1,7,7-trimethylbicyclo-[2.2.1]hept-2-yl ester, [1S*[1α,2β[S-(trans)],4α]]-], the values for the Ki in assay [1] and in assay [2] were 111 nM and 5300 nM, respectively.
`CC1(C)[C@H]2CC[C@]1(C)[C@H](OC(=O)N[C@](C)(Cc1c[nH]c3ccccc13)C(=O)NC1c3ccccc3CC1O)C2` (stereo partly drawn) [Compound 1, Carbamic acid, [2-[(2,3-dihydro-2-hydroxy-1H-inden-1-yl)amino]-1-(1H-indol-3-ylmethyl)-1-methyl-2-oxoethyl]-, 1,7,7-trimethylbicyclo-[2.2.1]hept 2-yl ester] displayed a Ki in assay [1] of 280 nM.
Still for that read-out and setting: as for `CC1(C)[C@H]2CC[C@]1(C)[C@H](OC(=O)N[C@](C)(Cc1c[nH]c3ccccc13)C(=O)NC1CCc3ccccc3C1=O)C2` (single isomer, unassigned) [Compound 5, Carbamic acid, [1-(1H-indol-3 ylmethyl)-1-methyl-2-oxo-2-[(1-2,3,4-tetrahydro-1-oxo-2-naphthalenyl)amino]ethyl]-, 1,7,7-trimethylbicyclo[2.2.1.1]hept-2-yl ester], the figure is 59 nM.
For the molecule `CC(Cc1c[nH]c2ccccc12)(NC(=O)OC1C2CC3CC(C2)CC1C3)C(=O)NC1CCCc2ccccc21` (racemic) [Compound 6, Carbamic acid, [1-(1H-indol-3-ylmethyl)-1-methyl-2-oxo-2-[(1,2,3,4-tetrahydro-1-naphthalenyl)amino]ethyl]-, tricyclo[3.3.1.1^3,7]-dec-2-yl ester, (±)-], the Ki was 45 nM in assay [1] and 5220 nM in assay [2].
